According to US8444858B2, “Control of development of biofilms in industrial process water” (A.Y. Laboratories Ltd., priority 2001, dated 2013):

Legend:
biofilm [1] = assay: Pilot plant wastewater pipes, difference in Hazen-Williams coefficient treated vs control pipe; settings: single 3 h treatment on day 1 at 10 ppm as total chlorine
Experimental: Treated wastewater was pumped through several pipes of 10 m length and 4 inches inner diameter in a pilot plant. […] Pressure drop through each pipe was monitored on-line, and average HW coefficients were calculated.
The biofilm inhibiting substance in this example was produced as follows, using a small feeding system was built specifically for this trial. […] The concentration of the biofilm inhibiting substance pre-injection solution was ˜3600 ppm and the pH was 9.2-9.6. […]

catalase (Merck) = assay: Inactivation of catalase, residual H2O2 laboratory test; format: biochemical; settings: for Residual H2O2 concentration, % of 3.5% g/l: catalase 26 units/ml
Experimental: Freshly prepared biofilm inhibiting substance was added to the appropriate flasks containing diluted catalase at a pre-defined feed rate. The contents of the containers were mixed for 60 minutes at room temperature prior to addition of H2O2 (to a final H2O2 concentration of 3.5 g/l). After addition of the H2O2, the mixture was allowed to mix for 30 minutes at room temperature, at which point H2O2 residues were measured in each flask in accordance with the Dr. Lange Cuvette Test LCW 058, measured with LASA 20 (based on Jander/Blasius: Lehrbach der Analytischen and Praparative Anorganischen Chemie, as described in the Handbook of Photometrical Operation Analysis (October 1997)).
Sodium hypochlorite was diluted in DI water to a final concentration of 6000 ppm expressed as total chlorine. Ammonium bromide solution (equimolar to 1.1 mole of the diluted sodium hypochlorite solution, 10% excess on a molar basis) and ammonium chloride solution (equimolar to 1.1 mole of the diluted hypochlorite solution, 10% excess on a molar basis) were prepared. The diluted hypochlorite (50 ml) was added dropwise to 50 ml of the appropriate ammonium salt while the pH was constantly measured. The biofilm inhibiting substance concentration in the produced stock solution was immediately measured and the biofilm inhibiting substance at the appropriate feed level was immediately added to the test flasks.

[2] = De-inking plant field trial, residual H2O2, residual biofilm inhibiting substance and H2O2 consumption
Experimental: A de-inking system had been using 7-10 kg H2O2 per ton of waste paper.
The reaction pH was Maintained at 9.8-10.0. The Production process was controlled to ensure synchronous metering of the two chemicals, continuous mixing at the predetermined molar ratio and reproducible production of a stable biofilm inhibiting substance stock solution for the duration of the trial and longer. […] After 850 minutes the dosing rate was reduced to 85 g/ton expressed as total Cl2 by feeding the biofilm inhibiting substance semi-continuously. Various parameters were monitored during start-up of the trial: Residual biofilm inhibiting substance was measured (using a Hach pocket colorimeter, total Cl2, based on the DPD method adapted from Standard Methods for Examination of Waste and Waste Water). […] When necessary, samples were diluted with DI water.

biofilm [3] = assay: Waste water fouling control in a 7 km pipe, Hazen-Williams coefficient; settings: NaOCl at a level of up to 50 mg/l (calculated as Cl2)
Experimental: Treated wastewater was piped from a wastewater treatment plant to a location 7 kilometers away.
(The Hazen-Williams coefficient is used to express water flow through industrial pipes. It is calculated using the formula
[formula] wherein P is the friction pressure drop expressed in pounds per square inch per 1000 feet of pipe length, B is the flow rate in barrels per hour, s is the specific gravity of the liquid, C=a friction factor (the Hazen-Williams coefficient), and d is the internal diameter of the pipe in inches. P and B are measured for a given pipe, s and d are treated as constants, and C is calculated. The results are presented as the Hazen-Williams coefficient.
Waste water (up to 10 m^3/h) was used to appropriately dilute both chemicals. An on-line pH meter controlled the production process and the hypochlorite feeding rate to ensure the production of a stable biofilm inhibiting substance. The biofilm inhibiting substance was injected into the treated waste pipe as it was produced. Concentration of the biofilm inhibiting substance stock solution was 3000-4000 ppm; the pH was maintained at 9.5-10.

[4] = system: mixed culture of slime-forming-bacteria which had been isolated from a paper machine; assay: Formation of biofilm on stainless steel coupons in a model system (viable counts in medium and on coupons); format: cell-based
Experimental: Formation of biofilm on stainless steel coupons in the presence or absence of an oxidizing biocide or a biofilm inhibiting substance was evaluated in the laboratory. The test system consisted of (a) three closed flasks each containing 20 L nutrient-rich medium (diluted three-fold from its recommended use concentration), (b) three closed cells containing stainless steel coupons hanging freely, and (c) three identical circulation pumps, each pump connected via plastic pipes to one of the flasks and to one of the cells. The system was placed in a thermostatic room at 35° C.
An innoculum containing a mixed culture of slime-forming-bacteria which had been isolated from a paper machine was added to each of the flasks. An oxidizer containing a 5 ppm mixture (expressed as total Cl2) of bromochlorodimethylhydantoin (an oxidizing biocide which is a source of HOBr and HOCl) (hereinafter “mixed halogens”) was added to the first flask once a day for the duration of the trial (4 days). […] The third flask served as a control for the two flasks treated with the oxidizing biocide or biofilm inhibiting substances. […] A diluted solution of sodium hypochlorite in deionized (DI) water (˜8000 ppm as total chlorine) was fed with one pump; a diluted solution of ammonium bromide (12500 ppm) was fed with the second pump. The two diluted solutions were synchronously mixed in a short glass pipe to form a pre-injection solution of biofilm inhibiting substance, using a pH meter to control and check the stability of the biofilm inhibiting substance formed. The biofilm inhibiting substance was fed to the test system immediately as it was produced.
On days 2 and 4, each closed cell was opened and 2 coupons were aseptically removed from each cell. At the same time samples of the circulating medium were taken as well. Sampling was conducted after feeding the daily slug dose of biocide.
Each sample of medium was serially 10-fold diluted in sterile saline solution and plated in molten agar. Each coupon was thoroughly rinsed to remove any adhered particles, aseptically scraped, and the material removed by scraping was quantitatively dispersed in saline solution, vortexed, serially 10-fold diluted and plated in molten agar. Viable counts of microorganisms were taken after 48 h of incubation at 35° C. Viable counts of cells in the medium are presented as colony forming units (cfu) per ml; viable counts on the coupon surfaces are presented as cfu/cm^2.

NCl [Chloramine, monochloroamine, reference compound]
HW Diff. treated pipe - Control (biofilm [1]; day 1): 13.0 | HW Diff. treated pipe - Control (biofilm [1]; day 2): 10.8 | HW Diff. treated pipe - Control (biofilm [1]; day 3): 10.7 | HW Diff. treated pipe - Control (biofilm [1]; day 4): 15.0 | HW Diff. treated pipe - Control (biofilm [1]; day 5): 15.2 | HW Diff. treated pipe - Control (biofilm [1]; day 6): 15.15 | HW Diff. treated pipe - Control (biofilm [1]; day 7): 14.6 | HW Diff. treated pipe - Control (biofilm [1]; day 8): 12.9 | HW Diff. treated pipe - Control (biofilm [1]; day 9): 13.0 | HW Diff. treated pipe - Control (biofilm [1]; day 10): 11.5 | HW Diff. treated pipe - Control (biofilm [1]; day 11): 9.5 | HW Diff. treated pipe - Control (biofilm [1]; day 12): 8.6 | HW Diff. treated pipe - Control (biofilm [1]; day 13): 7.0 | HW Diff. treated pipe - Control (biofilm [1]; day 14): 6.2 | HW Diff. treated pipe - Control (biofilm [1]; day 15): 4.4 | HW Diff. treated pipe - Control (biofilm [1]; day 16): 2.4 | HW Diff. treated pipe - Control (biofilm [1]; day 17): 0.8 | HW Diff. treated pipe - Control (biofilm [1]; day 18): 0.7 | oxidation of H2O2 by the substance (catalase (Merck)): do not oxidize H2O2 | Residual H2O2 concentration, % of 3.5% g/l (catalase (Merck); BIS 6.7 ppm as total chlorine): 6.8 % of 3.5% g/l | Residual H2O2 concentration, % of 3.5% g/l (catalase (Merck); BIS 58 ppm as total chlorine): 97.1 % of 3.5% g/l | Residual H2O2 concentration, % of 3.5% g/l (catalase (Merck); BIS 128 ppm as total chlorine): 99.4 % of 3.5% g/l

O=CCCCC=O [glutaraldehyde, reference compound]
average H2O2 consumption rate ([2]; parallel de-inking system at the same plant, commercial chemical formulation containing glutaraldehyde): ~4 kg H2O2/ton of waste paper | control of the enzymatic degradation of H2O2 ([2]; previous attempts on the trial de-inking system): did not yield cost-effective results

[Na+].[O-]Cl [NaOCl, reference compound]
improving water conductivity in the pipes (biofilm [3]): ineffective

CC1(C)C(=O)N(Cl)C(=O)N1Br [Mixed Halogens, bromochlorodimethylhydantoin, reference compound]
increase in the viable count of biofilm bacteria compared to day 2 ([4]; coupons after 4 days): 3 fold | reduction in viable count of planktonic microorganisms ([4]; medium sample after four days): ~10 fold | Viable Counts After 2 Days, medium ([4]; planktonic cells in circulating medium, day 2, daily slug dose (Mixed Halogens 5 ppm, Fuzzicide BAC […] expressed as Cl2), 35° C.): 9 × 10^6 cfu/ml | Viable Counts After 4 Days, medium ([4]; planktonic cells in circulating medium, day 4, daily slug dose (Mixed Halogens 5 ppm, Fuzzicide BAC […] expressed as Cl2)): 1 × 10^6 cfu/ml | Viable Counts After 2 Days, coupon surfaces ([4]; stainless steel coupons, day 2, daily slug dose (Mixed Halogens 5 ppm, Fuzzicide BAC […] expressed as Cl2)): 27 cfu/cm^2 | Viable Counts After 4 Days, coupon surfaces ([4]; stainless steel coupons, day 4, daily slug dose (Mixed Halogens 5 ppm, Fuzzicide BAC […] expressed as Cl2)): 95 Cfu/cm^2
